Experimental data: US6723724B2, “Isoxazolylalkylpiperazine derivatives having selective biological activity at dopamine D3 or D4 receptor, and preparation thereof” (priority 2000, dated 2004)

Key:
[1] = target: T1, dopamine D4 receptor (Homo sapiens, UniProt P21917); assay: Binding affinity to cloned human dopamine receptors (radioligand displacement), D4; conditions: for Affinity to Dopamine Receptors (% Inhibition) D4: 1 µM test compound
T1 sequence (P21917 1-419): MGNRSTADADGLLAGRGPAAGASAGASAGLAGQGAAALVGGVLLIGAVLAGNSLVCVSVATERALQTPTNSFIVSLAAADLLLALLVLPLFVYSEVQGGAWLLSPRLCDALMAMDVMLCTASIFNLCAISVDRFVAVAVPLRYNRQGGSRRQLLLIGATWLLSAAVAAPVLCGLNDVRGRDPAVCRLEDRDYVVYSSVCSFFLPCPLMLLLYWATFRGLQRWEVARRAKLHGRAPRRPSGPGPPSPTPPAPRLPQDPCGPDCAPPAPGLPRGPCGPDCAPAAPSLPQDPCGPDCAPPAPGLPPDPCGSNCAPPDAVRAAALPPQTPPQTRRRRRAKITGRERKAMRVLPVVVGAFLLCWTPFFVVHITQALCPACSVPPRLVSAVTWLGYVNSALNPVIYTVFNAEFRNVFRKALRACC
Protocol: (§1) Experimental Example: Test for the Binding Affinity to Dopamine Receptor
(§2) Binding affinities of the compounds for dopamine receptors were determined indirectly by their ability to displace radiolabeled ligand from cloned human dopamine receptors. Compounds were incubated in receptor suspension to compete with the radiolabeled ligand. The receptor-bound radiolabeled ligand was separated by filtering through Wallac glass fiber filtermat (GF/C) using Inotech cell harvester of 96-well format. The radioactivity bound to filter was counted by Micro-P counter (Wallac).
(§3) The aliquots of cloned human dopamine receptors stored at −70° C. were suspended in assay buffer and the content of receptor in each aliquot was determined by Bio-Rad DC protein assay kit to give an optimal protein (receptor) concentration obtained by preliminary receptor binding assay. Receptor suspension adjusted to optimal concentration was aliquoted in proper volume for assay and stored at −70° C. Binding assays of every compound were performed in duplicate and each different buffer solution was used for optimal assay with each subtype of dopamine receptors. Receptor binding assays were carried out in 96-well plates. Receptor suspension of 100 was incubated at 27° C. for 30-60 min in a final volume of 0.25 ml reaction mixture containing 50 of hot-ligand and 10 of test compound.
(§4) After incubation, the reaction mixture was washed with ice-cold 50 mM Tris-acetate buffer by rapid filtration using a Inotech cell harvester (Inotech, Switzerland) through Whatman GF/C glass fiber filter presoaked in the assay buffer. The filter was covered with MeltiLex, sealed in a sample bag followed by drying in the microwave, and counted by MicroBeta Plus (Wallac, Finland) at a counting efficiency of 30-40%.

[2] = target: dopamine D3 receptor (Homo sapiens, UniProt P35462); assay: Binding affinity to cloned human dopamine receptors (radioligand displacement), D3; conditions: for Affinity to Dopamine Receptors (% Inhibition) D3: 1 µM test compound
Protocol: as §1, §2, §3, §4

[3] = target: dopamine D2 receptor (Homo sapiens, UniProt P14416); assay: Binding affinity to cloned human dopamine receptors (radioligand displacement), D2; conditions: for Affinity to Dopamine Receptors (% Inhibition) D2: 1 µM test compound
Protocol: as §1, §2, §3, §4

[4] = target: dopamine D1 receptor (Homo sapiens, UniProt P21728); assay: Binding affinity to cloned human dopamine receptors (radioligand displacement), D1; conditions: for Affinity to Dopamine Receptors (% Inhibition) D1: 1 µM test compound
Protocol: as §1, §2, §3, §4

Chain of dopamine D1 receptor (P21728 whole entry): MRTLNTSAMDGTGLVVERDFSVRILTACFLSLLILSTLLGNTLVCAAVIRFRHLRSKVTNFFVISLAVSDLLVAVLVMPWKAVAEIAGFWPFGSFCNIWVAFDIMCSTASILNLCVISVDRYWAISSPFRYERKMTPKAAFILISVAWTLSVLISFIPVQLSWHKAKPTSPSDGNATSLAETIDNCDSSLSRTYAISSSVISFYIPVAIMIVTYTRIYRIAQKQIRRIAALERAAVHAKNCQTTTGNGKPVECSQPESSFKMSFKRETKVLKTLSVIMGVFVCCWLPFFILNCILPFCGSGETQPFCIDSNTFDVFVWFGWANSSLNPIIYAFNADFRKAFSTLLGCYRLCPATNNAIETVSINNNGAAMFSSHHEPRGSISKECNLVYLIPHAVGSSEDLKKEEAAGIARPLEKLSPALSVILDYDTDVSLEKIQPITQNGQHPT
Chain of dopamine D2 receptor (P14416 whole entry): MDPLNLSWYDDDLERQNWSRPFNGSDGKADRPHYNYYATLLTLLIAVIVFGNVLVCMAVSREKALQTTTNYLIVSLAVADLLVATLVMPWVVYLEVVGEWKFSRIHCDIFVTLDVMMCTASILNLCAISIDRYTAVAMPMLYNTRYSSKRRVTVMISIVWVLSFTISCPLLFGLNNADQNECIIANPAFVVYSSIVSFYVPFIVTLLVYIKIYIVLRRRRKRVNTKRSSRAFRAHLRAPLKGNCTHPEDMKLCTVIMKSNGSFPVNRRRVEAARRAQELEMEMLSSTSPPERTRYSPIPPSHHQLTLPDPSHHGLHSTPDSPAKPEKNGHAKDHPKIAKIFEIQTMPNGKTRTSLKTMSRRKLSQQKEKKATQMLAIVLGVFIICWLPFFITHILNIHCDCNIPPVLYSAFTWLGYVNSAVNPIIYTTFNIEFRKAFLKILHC
Chain of dopamine D3 receptor (P35462 whole entry): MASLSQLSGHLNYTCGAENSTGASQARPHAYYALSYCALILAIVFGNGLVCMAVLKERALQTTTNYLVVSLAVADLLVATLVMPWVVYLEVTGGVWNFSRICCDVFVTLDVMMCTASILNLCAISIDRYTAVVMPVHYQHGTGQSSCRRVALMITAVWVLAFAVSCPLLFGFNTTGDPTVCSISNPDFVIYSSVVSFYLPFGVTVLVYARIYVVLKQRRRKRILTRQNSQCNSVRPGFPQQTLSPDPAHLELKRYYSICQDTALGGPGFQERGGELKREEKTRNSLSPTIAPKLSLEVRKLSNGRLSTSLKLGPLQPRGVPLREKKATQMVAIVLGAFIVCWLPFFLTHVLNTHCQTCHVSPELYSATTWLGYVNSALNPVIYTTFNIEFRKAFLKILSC

Structure (SMILES)	Affinity to Dopamine Receptors (% Inhibition) D4 [1] [%]	Affinity to Dopamine Receptors (% Inhibition) D3 [2] [%]	Affinity to Dopamine Receptors (% Inhibition) D2 [3] [%]	Affinity to Dopamine Receptors (% Inhibition) D1 [4] [%]	IC50 [1] [nM]	IC50 [2] [nM]	IC50 [4] [nM]	IC50 [3] [nM]
CCOc1ccccc1N1CCN(CCCc2cc(-c3ccc(F)cc3)no2)CC1 [Compound No. 20]	86.2	89.4	47.9					
C(=C\c1cc(CCCCN2CCN(C(c3ccccc3)c3ccccc3)CC2)on1)/c1ccccc1 [Compound No. 29]	31.6	102.4	0.0	32.6				
COc1ccc(-c2cc(CCCN3CCN(c4ccccc4)CC3)on2)c(OC)c1 [Compound No. 32]	74.9	100.1	10.6	70	117	38	110	9980
c1ccc(N2CCN(CCCCc3cc(-c4cccs4)no3)CC2)cc1 [Compound No. 33]	62.4	104.4	6.7	52.9	180	35	310	18800
C(=C\c1cc(CCCCN2CCN(c3ccccc3)CC2)on1)/c1ccccc1 [Compound No. 36]	69	107.9	22.2	75.2				
COc1ccccc1N1CCN(CCCCc2cc(-c3ccc(F)cc3)no2)CC1 [Compound No. 37]	91.3	112.5	57.3	52.2				
COc1ccc(-c2cc(CCCCN3CCN(c4ccccc4OC)CC3)on2)cc1OC [Compound No. 39]	80.1	105.1	23	23.9	395	12	2880	1900
Fc1ccccc1N1CCN(CCCCc2cc(/C=C/c3ccccc3)no2)CC1 [Compound No. 46]	45.1		15.6	75.8	89			2660
CCOc1ccccc1N1CCN(CCCCc2cc(-c3cccs3)no2)CC1 [Compound No. 53]	93.4		54.1		19			880
CCOc1ccccc1N1CCN(CCCCc2cc(-c3ccccc3)no2)CC1 [Compound No. 54]	77.6	101.8	29.9		52	21		1550
